Measurements: BindingDB's records for doi:10.1016/s0014-2999(98)00246-5 (The Royal Danish School of Pharmacy, 1998)

Assays:
[1] = target: Metabotropic glutamate receptor 1 (Rattus norvegicus, UniProt P23385)
[2] = target: Metabotropic glutamate receptor 4 (Rattus norvegicus, UniProt P31423)
[3] = target: Metabotropic glutamate receptor 5 (Rattus norvegicus, UniProt P31424)
[4] = target: Metabotropic glutamate receptor 2 (Homo sapiens, UniProt Q14416)

Measured: Ki

Metabotropic glutamate receptor 4, sequence (P31423 whole entry): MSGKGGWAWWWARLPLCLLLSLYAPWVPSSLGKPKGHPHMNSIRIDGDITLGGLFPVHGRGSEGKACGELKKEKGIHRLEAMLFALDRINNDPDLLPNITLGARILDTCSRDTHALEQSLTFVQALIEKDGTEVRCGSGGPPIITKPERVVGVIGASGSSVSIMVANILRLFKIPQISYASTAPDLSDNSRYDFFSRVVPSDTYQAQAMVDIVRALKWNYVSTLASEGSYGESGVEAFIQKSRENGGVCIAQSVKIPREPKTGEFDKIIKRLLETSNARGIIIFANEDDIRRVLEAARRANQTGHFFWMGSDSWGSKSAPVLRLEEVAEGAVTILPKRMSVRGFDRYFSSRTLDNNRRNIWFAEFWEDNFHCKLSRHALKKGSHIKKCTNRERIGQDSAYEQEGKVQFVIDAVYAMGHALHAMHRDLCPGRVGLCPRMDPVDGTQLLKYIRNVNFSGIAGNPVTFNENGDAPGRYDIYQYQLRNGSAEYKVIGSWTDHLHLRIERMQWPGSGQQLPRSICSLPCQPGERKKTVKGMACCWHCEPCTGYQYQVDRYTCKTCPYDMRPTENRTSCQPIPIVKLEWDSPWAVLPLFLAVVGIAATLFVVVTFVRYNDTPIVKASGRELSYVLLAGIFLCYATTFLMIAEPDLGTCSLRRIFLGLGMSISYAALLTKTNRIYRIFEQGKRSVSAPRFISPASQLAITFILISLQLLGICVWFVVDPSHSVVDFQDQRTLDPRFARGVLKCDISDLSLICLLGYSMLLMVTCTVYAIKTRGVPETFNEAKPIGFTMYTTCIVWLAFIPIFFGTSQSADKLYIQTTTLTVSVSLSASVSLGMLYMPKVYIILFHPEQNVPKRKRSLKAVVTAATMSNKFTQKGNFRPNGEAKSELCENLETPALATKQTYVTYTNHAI
Metabotropic glutamate receptor 5, sequence (P31424 whole entry): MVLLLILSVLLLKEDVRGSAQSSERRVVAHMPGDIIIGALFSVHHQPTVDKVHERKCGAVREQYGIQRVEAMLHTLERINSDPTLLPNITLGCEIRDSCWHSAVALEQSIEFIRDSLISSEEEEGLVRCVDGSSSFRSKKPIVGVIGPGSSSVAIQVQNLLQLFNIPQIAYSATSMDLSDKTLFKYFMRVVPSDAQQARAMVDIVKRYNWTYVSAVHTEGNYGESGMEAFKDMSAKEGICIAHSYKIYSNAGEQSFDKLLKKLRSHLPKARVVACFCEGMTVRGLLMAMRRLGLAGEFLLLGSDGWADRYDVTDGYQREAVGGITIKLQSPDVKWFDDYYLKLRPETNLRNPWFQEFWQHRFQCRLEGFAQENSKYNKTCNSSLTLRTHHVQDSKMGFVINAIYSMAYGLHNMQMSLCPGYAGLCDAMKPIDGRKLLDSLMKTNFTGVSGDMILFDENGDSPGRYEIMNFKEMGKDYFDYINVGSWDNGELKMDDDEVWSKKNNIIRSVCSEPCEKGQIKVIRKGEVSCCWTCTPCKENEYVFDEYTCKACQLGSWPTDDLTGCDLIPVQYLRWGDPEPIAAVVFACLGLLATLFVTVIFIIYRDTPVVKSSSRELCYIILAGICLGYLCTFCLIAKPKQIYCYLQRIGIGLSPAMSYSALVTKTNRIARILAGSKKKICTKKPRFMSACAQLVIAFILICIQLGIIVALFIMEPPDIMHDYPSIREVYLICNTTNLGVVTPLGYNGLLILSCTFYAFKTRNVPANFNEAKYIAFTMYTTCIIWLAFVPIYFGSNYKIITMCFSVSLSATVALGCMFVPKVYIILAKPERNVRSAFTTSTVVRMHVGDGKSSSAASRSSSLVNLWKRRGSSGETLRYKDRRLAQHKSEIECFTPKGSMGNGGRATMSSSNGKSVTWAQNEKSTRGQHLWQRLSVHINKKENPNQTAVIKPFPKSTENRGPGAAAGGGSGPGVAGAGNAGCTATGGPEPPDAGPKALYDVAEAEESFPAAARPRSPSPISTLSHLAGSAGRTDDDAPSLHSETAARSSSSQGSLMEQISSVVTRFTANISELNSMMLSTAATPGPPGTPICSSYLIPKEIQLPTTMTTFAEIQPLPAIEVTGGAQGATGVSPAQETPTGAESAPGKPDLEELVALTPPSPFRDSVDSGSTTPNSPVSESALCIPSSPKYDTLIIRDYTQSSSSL
Metabotropic glutamate receptor 1, sequence (P23385 whole entry): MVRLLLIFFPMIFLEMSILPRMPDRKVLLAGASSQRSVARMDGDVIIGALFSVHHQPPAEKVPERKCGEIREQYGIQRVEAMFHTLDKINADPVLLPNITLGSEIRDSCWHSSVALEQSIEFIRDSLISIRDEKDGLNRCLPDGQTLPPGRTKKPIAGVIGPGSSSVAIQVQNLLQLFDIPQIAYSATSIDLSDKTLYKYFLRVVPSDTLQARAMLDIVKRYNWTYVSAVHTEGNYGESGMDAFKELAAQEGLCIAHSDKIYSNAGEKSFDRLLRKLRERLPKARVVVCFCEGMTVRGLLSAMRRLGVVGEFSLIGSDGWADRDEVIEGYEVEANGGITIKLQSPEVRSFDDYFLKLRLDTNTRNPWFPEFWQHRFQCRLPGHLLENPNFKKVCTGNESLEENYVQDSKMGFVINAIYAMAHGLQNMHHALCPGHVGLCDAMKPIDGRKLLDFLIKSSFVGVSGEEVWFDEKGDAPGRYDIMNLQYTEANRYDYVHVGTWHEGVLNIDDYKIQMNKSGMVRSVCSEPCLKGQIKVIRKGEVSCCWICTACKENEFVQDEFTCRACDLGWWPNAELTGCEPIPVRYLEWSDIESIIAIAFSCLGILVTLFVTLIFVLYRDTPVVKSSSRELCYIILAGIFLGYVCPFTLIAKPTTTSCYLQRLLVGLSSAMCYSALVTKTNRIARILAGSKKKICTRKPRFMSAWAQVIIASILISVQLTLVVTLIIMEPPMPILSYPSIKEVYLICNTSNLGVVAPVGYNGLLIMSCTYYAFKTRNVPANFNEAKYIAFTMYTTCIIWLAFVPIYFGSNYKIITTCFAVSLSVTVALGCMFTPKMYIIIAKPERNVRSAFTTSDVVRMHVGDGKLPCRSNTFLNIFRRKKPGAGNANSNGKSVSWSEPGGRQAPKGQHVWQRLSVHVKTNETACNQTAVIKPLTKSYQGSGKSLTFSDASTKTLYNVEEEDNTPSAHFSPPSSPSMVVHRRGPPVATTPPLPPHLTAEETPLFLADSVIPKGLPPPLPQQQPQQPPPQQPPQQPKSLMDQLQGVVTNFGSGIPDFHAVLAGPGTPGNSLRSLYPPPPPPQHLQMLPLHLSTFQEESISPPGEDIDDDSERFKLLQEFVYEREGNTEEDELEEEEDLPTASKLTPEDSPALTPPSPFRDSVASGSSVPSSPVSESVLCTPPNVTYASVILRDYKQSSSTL
Metabotropic glutamate receptor 2, sequence (Q14416 whole entry): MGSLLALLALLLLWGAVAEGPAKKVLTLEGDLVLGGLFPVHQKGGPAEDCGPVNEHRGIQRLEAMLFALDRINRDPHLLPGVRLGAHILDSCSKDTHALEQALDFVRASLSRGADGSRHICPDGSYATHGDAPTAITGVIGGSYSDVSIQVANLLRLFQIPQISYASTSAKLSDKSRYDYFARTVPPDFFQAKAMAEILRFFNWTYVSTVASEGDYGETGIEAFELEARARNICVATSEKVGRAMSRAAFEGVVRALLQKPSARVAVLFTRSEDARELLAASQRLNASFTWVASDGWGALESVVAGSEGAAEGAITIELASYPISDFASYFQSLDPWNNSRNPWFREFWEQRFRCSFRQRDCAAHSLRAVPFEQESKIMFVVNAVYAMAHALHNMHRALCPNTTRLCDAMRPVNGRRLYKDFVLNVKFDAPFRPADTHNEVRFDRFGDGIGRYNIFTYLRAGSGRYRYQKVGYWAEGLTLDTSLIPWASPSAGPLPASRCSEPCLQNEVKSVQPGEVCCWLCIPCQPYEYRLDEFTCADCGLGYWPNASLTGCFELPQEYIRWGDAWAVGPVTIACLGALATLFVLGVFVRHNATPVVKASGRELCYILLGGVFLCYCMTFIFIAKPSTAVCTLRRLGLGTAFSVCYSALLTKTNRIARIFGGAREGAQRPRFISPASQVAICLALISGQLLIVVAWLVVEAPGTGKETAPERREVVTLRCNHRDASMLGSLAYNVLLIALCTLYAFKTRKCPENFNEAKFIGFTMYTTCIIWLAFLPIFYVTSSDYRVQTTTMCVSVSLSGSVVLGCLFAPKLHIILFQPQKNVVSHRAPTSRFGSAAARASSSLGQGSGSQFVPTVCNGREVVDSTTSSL

NC(C(=O)O)c1cc(=O)[nH]o1 (stereo unspecified) [Amino-(3-hydroxy-isoxazol-5-yl)-acetic acid(Ibotenic acid)]
> 10 µM: [1] | [2] | [3]

CCCCc1c(C[C@H](N)C(=O)O)o[nH]c1=O [(R)-Bu-HIBO]
> 10 µM: [4] | [1] | [2] | [3]

N[C@H](Cc1cc(=O)[nH]o1)C(=O)O [CAS_194385]
> 10 µM: [4] | [1] | [2] | [3]

N[C@H](C(=O)O)c1ccc(C(=O)O)cc1 [4-((S)-Amino-carboxy-methyl)-benzoic acid]
> 10 µM: [1] | [3]

Cc1c(C[C@@H](N)C(=O)O)o[nH]c1=O [(S)-4-Methylhomoibotenic acid]
> 10 µM: [4] | [1] | [2] | [3]

CCCCc1c(O)noc1C[C@@H](N)C(=O)O [CAS_77006-30-5]
> 10 µM: [4] | [1] | [2] | [3]

N[C@@H](Cc1o[nH]c(=O)c1Br)C(=O)O [NSC_2733518]
> 10 µM: [4] | [1] | [2] | [3]

N[C@H](Cc1onc(O)c1Br)C(=O)O [NSC_2733518]
> 10 µM: [4] | [1] | [2] | [3]

N[C@@H](Cc1cc(=O)[nH]o1)C(=O)O [CAS_194385]
> 10 µM: [4] | [1] | [2] | [3]

N[C@@H](CCC(=O)O)C(=O)O [L-Glutamic acid]
> 10 µM: [2]

N[C@H](CCCC(=O)O)C(=O)O [CAS_542-32-5]
> 10 µM: [4] | [1] | [2] | [3]

Cc1c(C[C@H](N)C(=O)O)o[nH]c1=O [(2S)-2-amino-3-(3-hydroxy-4-methyl-1,2-oxazol-5-yl)propanoic acid]
> 10 µM: [4] | [2] | [3]
